These results are taken from PMC4490944 (Journal of immunology (Baltimore, Md. : 1950), 2015).

One test concerns MHC II. As to conditions: as previously reported; cited from earlier work.
Test [1] deals with HLA-DR1 (DR1) (DRA*0101/DRB1*010101) (Homo sapiens, UniProt P01903+P01911, A100R/D57E/F55L/F60I/F76Y/I96L/L162R/M171V/P40L/Q125E/R42F/V115G/Y59C). Kind of test: Numerical modeling. As to conditions: Scheme V. The test is classed as binding.

For Ac-PRFVKQNTLRLAT [HA], the “intrinsic and DM-catalyzed dissociation half-life” value in the test with MHC II is on record as ~ 100 hours. Further, in test [1] (bound for same fit), the “k-3 (values that could produce the same fits)” value is given as “less than 1×10^−4”, the “k-6 (values that could produce the same fits)” value is listed as “less than 1×10^−4” and the “k-7 (values that could produce the same fits)” value was “less than 1×10^−4”. In test [1] (best fit value, DM-MHC resolves into inactive MHC II in the absence of peptides, kept the same for HA and CLIP, 0.4 μM DR1, 0.4 μM DM), this substance came in with a k5 of 0.36 min⁻¹.
